Data on 21 molecules can be found in US12428403B2, “N-(heterocyclyl and heterocyclylalkyl)-3-benzylpyridin-2-amine derivatives as SSTR4 agonists” (Takeda Pharmaceutical Company Limited, priority 2020, dated 2025).

The target of one assay is SSTR1 (Homo sapiens, UniProt P30872). The assay can be described thus: biochemical.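 Note: competitive binding to membranes of CHO-K1 cells overexpressing SSTR1, incubated 60 min at room temperature, radioactivity read by scintillation counting after filtration.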
For assay [1], the target named is T1, SSTR4 (Homo sapiens, UniProt P31391). The assay can be described thus: SSTR4 I-125 somatostatin competition binding assay (CHO-K1 membranes). Further details: host or cells: CHO-K1. Particulars: competition with I-125 labeled somatostatin, membranes from CHO-K1 overexpressing SSTR4; read-out: SSTR4 Binding pIC50 (converted). From the text: SSTR4I-125 Somatostatin Competition Binding Assay
Membranes from CHO-K1 cells overexpressing SSTR4 are purchased from Perkin Elmer (catalog number ES-524-M400UA). […] The scintillator sheets are melted to filters using a heat block.

The target in assay [2] is T1, SSTR4. The assay can be described thus: cell-based.
Experimental: This cell-based assay measures the ability of compounds to inhibit forskolin stimulated cAMP in CHO-K1 cells overexpressing SSTR4. CHO-K1 cells overexpressing SSTR4 (CHO-SSTR4) are purchased from DiscoveRx (product code 95-0059C2). The CHO-SSTR4 cells are maintained in F12K media with 10% Fetal Bovine Serum (Hyclone), 1% Pen/Strep (Life Technologies), and 800 μg/mL G418 (Life Technologies). To perform the assay, 3000 cells are plated per well in white 384-well plate (Corning 3570) in 50 complete media and the cells are allowed to attach for 16 hours in a 37° C., 5% CO2 incubator. The next day, the culture media is removed from the cells and the cells are washed (added then removed) with Krebs Ringer Buffer (ZenBio, KRB-1000 mL). Test compounds are suspended in DMSO and diluted in stimulation buffer: Krebs Ringer Buffer plus 0.5% BSA (Roche), 300 μM IBMX (Sigma), and 350 nM forskolin (Sigma). The cells are incubated in 10 μL compound/stimulation buffer for 30 minutes at room temperature. Cellular cAMP levels are detected with a HTRF LANCE Ultra cAMP kit (Perkin Elmer, catalog number TRF0264).
The assay is performed in accordance with the manufacturer's instructions. Five μL of diluted Eu-W8044 labeled streptavidin (dilution: 1:50 in cAMP Detection Buffer) is added to each well. Then 5 μL of diluted biotin cAMP (dilution: 1:150 in cAMP Detection Buffer) is added to each well. The plates are covered and allowed to incubate for 60 minutes at room temperature on a shaker. HTRF (665 nm/615 nm) is read on a Perkin Elmer ENVISION plate reader. The pEC50 values are generated using Activity Base for Screening Data Management.
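Throughout, for EC50: CHO-K1 cells overexpressing SSTR4, reduction of forskolin-driven cAMP after 30 min compound exposure at room temperature, cAMP read by HTRF LANCE Ultra kit.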

T1 sequence (P31391 whole entry): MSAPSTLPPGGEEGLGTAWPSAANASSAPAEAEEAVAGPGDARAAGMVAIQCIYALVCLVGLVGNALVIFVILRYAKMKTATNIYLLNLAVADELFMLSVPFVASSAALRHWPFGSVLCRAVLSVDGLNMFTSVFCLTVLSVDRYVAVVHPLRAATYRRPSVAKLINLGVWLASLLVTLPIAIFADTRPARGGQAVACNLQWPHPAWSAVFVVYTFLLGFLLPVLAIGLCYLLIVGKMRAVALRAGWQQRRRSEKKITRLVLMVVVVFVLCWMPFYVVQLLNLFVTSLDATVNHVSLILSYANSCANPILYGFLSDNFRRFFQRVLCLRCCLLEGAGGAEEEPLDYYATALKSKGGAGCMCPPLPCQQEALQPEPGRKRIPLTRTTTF
SSTR1, sequence (P30872 whole entry): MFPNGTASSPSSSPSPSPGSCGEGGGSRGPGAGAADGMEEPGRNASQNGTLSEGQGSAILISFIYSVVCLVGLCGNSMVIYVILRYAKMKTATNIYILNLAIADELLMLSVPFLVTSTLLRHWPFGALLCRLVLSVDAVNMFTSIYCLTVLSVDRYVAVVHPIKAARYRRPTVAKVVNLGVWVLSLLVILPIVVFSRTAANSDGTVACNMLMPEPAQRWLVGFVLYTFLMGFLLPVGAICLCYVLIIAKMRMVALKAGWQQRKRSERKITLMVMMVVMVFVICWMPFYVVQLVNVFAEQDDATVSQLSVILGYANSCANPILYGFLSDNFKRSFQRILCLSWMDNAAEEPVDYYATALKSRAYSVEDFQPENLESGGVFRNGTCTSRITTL
Experimental for SSTR1: SSTR1 I-125 Somatostatin Competition Binding Assay for Selectivity Versus SSTR1
Membranes from CHO-K1 cells overexpressing SSTR1 are purchased from Perkin Elmer (catalog number ES-520-M400UA). Test compounds are suspended in DMSO and then diluted in assay buffer (25 mM HEPES pH 7.4, 10 mM MgCl2, 1 mM CaCl2, 0.5% BSA) plus 0.4 nM I-125 labeled somatostatin (Perkin Elmer catalog number NEX389). […] Then 10 μg of SSTR1 membranes in 50 μL assay buffer are added per well. The plate is incubated for 60 minutes at room temperature. […] The contents of the assay plate are transferred to filters with a TomTech harvester and washed 5 times with 20 mM HEPES, 100 mM NaCl. […] The scintillator sheets are melted to the filters using a heat block. The filters are then read in a MicroBeta scintillation counter. Binding Ki curves are generated using Activity Base for Screening Data Management and the results are reported as pIC50.

As usually defined, the EC50 is the concentration at which the effect is half-maximal. `C[C@H](c1ccc(F)cc1)c1nc(C(=O)N[C@H]2CCOC2)cnc1NCCN1CCCC1` [Example 12, 6-((R)-1-(4-fluorophenyl)ethyl)-5-((2-(pyrrolidin-1-yl)ethyl)amino)-N-((S)-tetrahydrofuran-3-yl)pyrazine-2-carboxamide]: the IC50 is 5620 nM at SSTR1 and 162 nM at SSTR4 [1]. The molecule further showed an EC50 at SSTR4 [2] of 15.1 nM.

On to `C[C@H](c1ccc(F)cc1)c1nc(C(=O)N[C@@H]2CCOC2)cnc1NCCN1CCCC1` [Example 13, 6-((R)-1-(4-fluorophenyl)ethyl)-5-((2-(pyrrolidin-1-yl)ethyl)amino)-N-((R)-tetrahydrofuran-3-yl)pyrazine-2-carboxamide], for which the IC50 against SSTR1 is 4070 nM; at SSTR4 [1], 162 nM. For the same molecule, the EC50 at SSTR4 [2] was 11.7 nM.

In the case of `C[C@H](c1ccc(F)cc1)c1nc(C(=O)N(C)C2CC2)cnc1NCCN1CCCC1` [Example 17, (R)-N-cyclopropyl-6-(1-(4-fluorophenyl)ethyl)-N-methyl-5-((2-(pyrrolidin-1-yl)ethyl)amino)pyrazine-2-carboxamide], the IC50 is 7940 nM against SSTR1 and 162 nM on SSTR4 [1]. For the same molecule, the EC50 at SSTR4 [2] was 11.7 nM.

Turning to `C[C@H](c1ccc(F)cc1)c1nc(C(=O)NC2CCOCC2)cnc1NCCN1CCCC1` [Example 18, (R)-6-(1-(4-fluorophenyl)ethyl)-5-((2-(pyrrolidin-1-yl)ethyl)amino)-N-(tetrahydro-2H-pyran-4-yl)pyrazine-2-carboxamide], the IC50 is 8910 nM on SSTR1 and 166 nM on SSTR4 [1]. Also, a half-maximal effect on SSTR4 [2] (EC50) was put at 12 nM.

With `CC(c1ccc(F)cc1)c1nc(C(N)=O)cnc1NCCN1CCCC1` (stereo not drawn) [Example 19, 6-(1-(4-fluorophenyl)ethyl)-5-((2-(pyrrolidin-1-yl)ethyl)amino)pyrazine-2-carboxamide], the values for the IC50 at SSTR1 and at SSTR4 [1] were 5750 nM and 50.1 nM, respectively. The molecule further gave an EC50 at SSTR4 [2] of 5.37 nM.

In the case of `CNC(=O)c1cnc(NCCN2CCCC2)c(C(C)c2ccc(F)cc2)n1` (stereo not drawn) [Example 22, 6-(1-(4-fluorophenyl)ethyl)-N-methyl-5-((2-(pyrrolidin-1-yl)ethyl)amino)pyrazine-2-carboxamide], the results for the IC50 on SSTR1 and at SSTR4 [1] were 10500 nM and 77.6 nM, respectively. Also, the EC50 on SSTR4 [2] was 3.72 nM.

With `CC(c1ccc(F)cc1)c1ncc(C(=O)N(C)C)nc1NCCN1CCCC1` (stereo not drawn) [Example 28], the IC50 at SSTR1 was 1660 nM; on SSTR4 [1], 389 nM. The molecule also had a half-maximal effective concentration (EC50) at SSTR4 [2] of 4.68 nM.

Take `CC(c1ccc(F)cc1)c1ncc(C(N)=O)nc1NCCN1CCCC1` (stereo not drawn) [Example 37, 5-(1-(4-fluorophenyl)ethyl)-6-((2-(pyrrolidin-1-yl)ethyl)amino)pyrazine-2-carboxamide]: the results for the IC50 against SSTR1 and at SSTR4 [1] were 4570 nM and 490 nM, respectively. Further, the EC50 at SSTR4 [2] is 61.7 nM.

In the case of `Cc1cccc(Cc2nc(C(=O)N(C)C)c(C)nc2NCCN2CCCC2)c1` [Example 39, N,N,3-trimethyl-6-(3-methylbenzyl)-5-((2-(pyrrolidin-1-yl)ethyl)amino)pyrazine-2-carboxamide], the IC50 was 26900 nM against SSTR1 and 41.7 nM at SSTR4 [1]. For the same molecule, at SSTR4 [2], the EC50 was 4.27 nM.

`CNC(=O)c1nc(Cc2cccc(C)c2)c(NCCN2CCCC2)nc1C` [Example 40, N,3-dimethyl-6-(3-methylbenzyl)-5-((2-(pyrrolidin-1-yl)ethyl)amino)pyrazine-2-carboxamide]: the IC50 is 8910 nM at SSTR1 and 21.9 nM at SSTR4 [1]. At SSTR4 [2], this molecule showed an EC50 of 1.17 nM.

As to `Cc1cccc(Cc2nc(C(N)=O)c(C)nc2NCCN2CCCC2)c1` [Example 41, 3-methyl-6-(3-methylbenzyl)-5-((2-(pyrrolidin-1-yl)ethyl)amino)pyrazine-2-carboxamide], the IC50 on SSTR1 is 13200 nM; at SSTR4 [1], 23.4 nM. Besides, the midpoint of the response on SSTR4 [2], the EC50, lay at 2.09 nM.

In the case of `Cc1nc(NCCN2CCCC2)c(Cc2ccc(F)cc2)nc1C(=O)N(C)C` [Example 42, 6-(4-fluorobenzyl)-N,N,3-trimethyl-5-((2-(pyrrolidin-1-yl)ethyl)amino)pyrazine-2-carboxamide], the IC50 against SSTR1 is 10000 nM; on SSTR4 [1], 138 nM. The molecule further showed an EC50 on SSTR4 [2] of 12.6 nM.

Consider `CNC(=O)c1nc(Cc2ccc(F)cc2)c(NCCN2CCCC2)nc1C` [Example 43, 6-(4-fluorobenzyl)-N,3-dimethyl-5-((2-(pyrrolidin-1-yl)ethyl)amino)pyrazine-2-carboxamide], for which the IC50 against SSTR1 was 9770 nM; on SSTR4 [1], 39.8 nM. The EC50 at SSTR4 [2] is 12.6 nM.

Turning to `CNC(=O)c1nc(Cc2ccc(F)cc2)c(NCCN2CCCC2)nc1C` [Example 44, 6-(4-fluorobenzyl)-N,3-dimethyl-5-((2-(pyrrolidin-1-yl)ethyl)amino)pyrazine-2-carboxamide], the IC50 against SSTR1 was 11700 nM; at SSTR4 [1], 67.6 nM. On SSTR4 [2], the EC50 is 4.79 nM.

With `Cc1nc(NCCN2CCCC2)c(C(C)c2ccc(F)cc2)nc1C(=O)N(C)C` (stereo not drawn) [Example 48, 6-(1-(4-fluorophenyl)ethyl)-N,N,3-trimethyl-5-((2-(pyrrolidin-1-yl)ethyl)amino)pyrazine-2-carboxamide], the figures for the IC50 at SSTR1 and at SSTR4 [1] were 9550 nM and 11.7 nM, respectively. This molecule also gave an EC50 at SSTR4 [2] of 0.776 nM.

As for `CNC(=O)c1nc(C(C)c2ccc(F)cc2)c(NCCN2CCCC2)nc1C` (stereo not drawn) [Example 49, 6-(1-(4-fluorophenyl)ethyl)-N,3-dimethyl-5-((2-(pyrrolidin-1-yl)ethyl)amino)pyrazine-2-carboxamide], the IC50 is 2570 nM on SSTR1 and 16.6 nM at SSTR4 [1]. For the same molecule, the response on SSTR4 [2] was half-maximal at 0.977 nM (EC50).

With `Cc1nc(NCCN2CCCC2)c(C(C)c2ccc(F)cc2)nc1C(=O)NCCF` (stereo not drawn) [Example 51, N-(2-fluoroethyl)-6-(1-(4-fluorophenyl)ethyl)-3-methyl-5-((2-(pyrrolidin-1-yl)ethyl)amino)pyrazine-2-carboxamide], the figures for the IC50 at SSTR1 and at SSTR4 [1] were 81.3 nM and 18.2 nM, respectively. Further, the response on SSTR4 [2] was half-maximal at 3.09 nM (EC50).

For the molecule `COCCNC(=O)c1nc(C(C)c2ccc(F)cc2)c(NCCN2CCCC2)nc1C` (stereo not drawn) [Example 52, 6-(1-(4-fluorophenyl)ethyl)-N-(2-methoxyethyl)-3-methyl-5-((2-(pyrrolidin-1-yl)ethyl)amino)pyrazine-2-carboxamide], the IC50 on SSTR1 was 1620 nM; on SSTR4 [1], 16.2 nM. The EC50 on SSTR4 [2] was 1.86 nM.

Take `Cc1nc(NCCN2CCCC2)c(C(C)c2ccc(F)cc2)nc1C(=O)N1CCC(F)(F)C1` (stereo not drawn) [Example 60, (3,3-difluoropyrrolidin-1-yl)(6-(1-(4-fluorophenyl)ethyl)-3-methyl-5-((2-(pyrrolidin-1-yl)ethyl)amino)pyrazin-2-yl)methanone]: the IC50 was 1580 nM on SSTR1 and 40.7 nM at SSTR4 [1]. The midpoint of the response at SSTR4 [2], the EC50, lay at 4.9 nM.

Take `Cc1nc(NCCN2CCCC2)c(C(C)c2ccc(F)cc2)nc1C(=O)N[C@@H]1CCOC1` (stereo partly drawn) [Example 61, 6-(1-(4-fluorophenyl)ethyl)-3-methyl-5-((2-(pyrrolidin-1-yl)ethyl)amino)-N-((R)-tetrahydrofuran-3-yl)pyrazine-2-carboxamide]: the IC50 against SSTR1 is 1510 nM; at SSTR4 [1], 20.4 nM. The EC50 at SSTR4 [2] was 15.8 nM.

In the case of `Cc1nc(NCCN2CCCC2)c(C(C)c2ccc(F)cc2)nc1C(=O)NC1CC1` (stereo not drawn) [Example 62, N-cyclopropyl-6-(1-(4-fluorophenyl)ethyl)-3-methyl-5-((2-(pyrrolidin-1-yl)ethyl)amino)pyrazine-2-carboxamide], the IC50 against SSTR1 is 1410 nM; at SSTR4 [1], 14.5 nM. The molecule further had an EC50 on SSTR4 [2] of 4.27 nM.
